Assay results reported in patent publication EP1219631A1, “ANTIANDROGEN AGENTS” (CHUGAI SEIYAKU KABUSHIKI KAISHA, priority 1999, dated 2001).

How the values were obtained:
[1] = target: T1, human androgen receptor (Homo sapiens, UniProt P10275); experiment: Androgen receptor reporter gene assay, antagonist action against DHT (MMTV-Luc, pSG5/hAR and Renilla Luc vectors transfected into HeLa cells, dual-luciferase); type: cell-based
T1 construct: expressed in transfected cells; host or cells: HeLa cells
T1 sequence (P10275 1-920): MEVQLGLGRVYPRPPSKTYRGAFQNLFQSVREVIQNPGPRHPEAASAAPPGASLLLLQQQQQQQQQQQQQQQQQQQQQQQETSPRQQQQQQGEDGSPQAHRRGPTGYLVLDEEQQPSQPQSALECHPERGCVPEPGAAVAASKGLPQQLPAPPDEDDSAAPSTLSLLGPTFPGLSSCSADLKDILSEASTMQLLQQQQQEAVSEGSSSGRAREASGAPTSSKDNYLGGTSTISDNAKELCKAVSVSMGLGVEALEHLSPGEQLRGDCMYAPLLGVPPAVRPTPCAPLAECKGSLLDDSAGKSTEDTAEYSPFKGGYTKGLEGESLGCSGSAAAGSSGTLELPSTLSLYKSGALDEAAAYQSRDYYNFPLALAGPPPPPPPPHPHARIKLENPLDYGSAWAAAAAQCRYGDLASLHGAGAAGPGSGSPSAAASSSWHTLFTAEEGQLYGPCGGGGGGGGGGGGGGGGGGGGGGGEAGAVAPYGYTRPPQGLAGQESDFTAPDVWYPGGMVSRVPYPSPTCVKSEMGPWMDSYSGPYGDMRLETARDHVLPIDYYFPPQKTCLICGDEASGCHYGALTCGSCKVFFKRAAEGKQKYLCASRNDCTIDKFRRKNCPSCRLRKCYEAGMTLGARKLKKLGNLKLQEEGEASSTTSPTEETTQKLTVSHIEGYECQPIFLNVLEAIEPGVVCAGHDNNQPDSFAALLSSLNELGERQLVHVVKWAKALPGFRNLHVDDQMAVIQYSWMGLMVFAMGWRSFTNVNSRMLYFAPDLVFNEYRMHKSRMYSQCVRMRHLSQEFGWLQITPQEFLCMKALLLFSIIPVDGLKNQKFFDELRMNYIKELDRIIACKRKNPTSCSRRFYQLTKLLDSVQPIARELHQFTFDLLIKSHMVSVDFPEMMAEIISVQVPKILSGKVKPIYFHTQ
Protocol: The expression "acting as antagonist" means that in the following androgen receptor gene assay, the transcriptional activity value of 0.1 nmol/L of dihydrotestosterone (DHT) is inhibited to 0 - 50% at any concentration of 0.1 nmol/L - 10 µmol/L:
Twenty-four hours before transfection, 1.0 x 10^5 HeLa cells are cultured in phenol red free DMEM/5% DCC-FBS on 12-well microplates. Five hundred nanograms/well of MMTV-Luc vector, 100 ng/well of pSG5/hAR and 5 ng/well of Renilla Luc vector are transfected into the HeLa cells. The transfection is performed in a liquid culture of the phenol red free DMEM using […] of lipofectoamine. Nine hours after the transfection, the liquid culture is replaced by phenol red free DMEM/3% DCC-FBS containing 0.1 nmol/L of DHT and […] of a compound of the invention which is represented by the general formula (I) or the substance of the invention which acts as antagonist against but not as agonist for the androgen receptor. The transcriptional activity value is measured 48 hours after the replacement of the liquid culture. Transcriptional activity is measured with a dual-luciferase reporter assay system. The transcriptional activity value is defined as the value for firefly luciferase divided by the value for sea pansy luciferase. […] 270, pp. 19998-20003, 1995.
(§1) Twenty-four hours before transfection, 1.0 x 10^5 HeLa cells were cultured in phenol red free DMEM/5% DCC-FBS on 12-well microplates. Five hundred nanograms/well of MMTV-Luc vector, 100 ng/well of pSG5/hAR and 5 ng/well of Renilla Luc vector were transfected into the HeLa cells. The transfection was performed in a liquid culture of the phenol red free DMEM using […] of lipofectoamine. […] The transcriptional activity value was measured 48 hours after the replacement of the liquid culture. Transcriptional activity was measured with a dual-luciferase reporter assay system. The transcriptional activity value was calculated as the value for firefly luciferase divided by the value for sea pansy luciferase.
The compound was added at concentrations of 1, 10, 100, 1000 and 10000 nmol/L and at each of these concentrations, measurement was done in the presence of DHT (0.1 nmol/L). Antagonist activity = Transcriptional activity when the compound was added/Transcriptional activity when the compound was not added x 100 [formula]

[2] = target: T1, human androgen receptor; experiment: Androgen receptor reporter gene assay, agonist action (MMTV-Luc, pSG5-hAR and Renilla Luc vectors transfected into HeLa cells, dual-luciferase); type: cell-based; conditions: for FI5 value: concentration showing a transcriptional activity five times that without compound, tested at 1, 10, 100, 1000 and 10000 nmol/L
Excerpt: Speaking of the substance of the invention which acts as antagonist against but not as agonist for the androgen receptor, the expression "not acting as agonist" means that in the following androgen receptor gene assay, the transcriptional activity value of the substance at any concentration of 0.1 nmol/L - 10 µmol/L is from one to five times the transcriptional activity value for no addition of the substance which is taken as unity:
Twenty-four hours before transfection, 1.0 x 10^5 HeLa cells (purchased from Dainippon Pharmaceutical Co., Ltd.) are cultured in phenol red free Dulbecco's modified Eagle medium (DMEM) containing 5% of charcoal-treated FBS (DCC-FBS) in 12-well microplates. Five hundred nanograms/well of MMTV-Luc vector (the reporter plasmid of luciferase having mouse tumor long terminal repeats containing the androgen response element: GM-CAT vector (A.T.C.C. No. 67282) purchased from A.T.C.C. provided that the chloramphenicol acetyl transferase gene was replaced by the firefly luciferase gene), 100 ng/well of pSG5-hAR (the expression vector of the human androgen receptor which harbors the androgen receptor gene under the control of SV40 promoter) and 5 ng/well of Renilla Luc vector (a vector for internal standard incorporating the sea pansy luciferase gene) are transfected into the HeLa cells. The transfection is performed in a liquid culture of the phenol red free DMEM using […] of lipofectoamine (GibcoBRL). Nine hours after the transfection, the liquid culture is replaced by phenol red free DMEM/3% DCC-FBS containing 10 µmol/L of a compound of the invention which is represented by the general formula (I) or the substance of the invention which acts as antagonist against but not as agonist for the androgen receptor. The transcriptional activity value is measured 48 hours after the replacement of the liquid culture. Transcriptional activity is measured with a dual-luciferase reporter assay system (Promega). The transcriptional activity value is defined as the value for firefly luciferase divided by the value for sea pansy luciferase. […] 270, pp. 19998-20003, 1995.
as §1, with “pSG5-hAR” for “pSG5/hAR”
The compound was added at concentrations of 1, 10, 100, 1000 and 10000 nmol/L. Agonist activity = Transcriptional activity when the compound was added/Transcriptional activity when the compound was not added [formula]

[3] = prostate cancer patients under flutamide treatment; cited from earlier work
[4] = target: androgen receptor (Homo sapiens, UniProt P10275); conditions: cited from earlier work
[5] = test system: castrated rats; conditions: two-week continuous administration; cited from earlier work

CC12CCC3C(C(CCCCCCCC(=O)NCCc4ccccc4)CC4CC(=O)CCC43C)C1CCC2O (stereo not shown) [Example 74]
IC50 [1]: 2040 nM
FI5 value [2]: ND (even when the compound was added at a concentration of 10000 nM, the transcriptional activity of the compound-treated group was less than 5 times the transcriptional activity of the control group, making it impossible to compute the FI5 value)

CC(C)(O)C(=O)Nc1ccc([N+](=O)[O-])c(C(F)(F)F)c1 [Hydroxyflutamide, hydroxyflutamide]
Plasma levels [3]: several
transcriptional activity value of DHT ([1]; text of Example 2, with 0.1 nmol/L of DHT, HeLa cells, 48 hours): less than 50%
acting as agonist ([2]; at a concentration of 10 µmol/L): act as agonist
FI5 value [2]: 1000 nM
agonist action for the androgen receptor mediated transcriptional activity ([2]; summary of the results of Example 180): exhibit agonist action
transcriptional activity of the androgen receptor [4]: elevated

CC(=O)O[C@]1(C(C)=O)CC[C@H]2[C@@H]3C=C(Cl)C4=CC(=O)CC[C@]4(C)[C@H]3CC[C@@]21C [chlormadinone acetate]
prostate weight [5]: increased

CC(=O)O[C@]1(C(C)=O)CC[C@H]2[C@@H]3C=C(Cl)C4=CC(=O)[C@@H]5C[C@@H]5[C@]4(C)[C@H]3CC[C@@]21C [cyproterone acetate]
prostate weight [5]: increased
